Measurements reported in ChEMBL document CHEMBL6127034, “Design, synthesis and biological evaluation of a novel PAK1 degrader for the treatment of triple negative breast cancer” (Bioorg Med Chem, 2024).

Columns and labels:
[1] = tested on: MDA-MB-231; assay: Antiproliferative activity against human MDA-MB-231 cells incubated for 48 hrs by MTT assay; assay type: functional, cell-based; conditions: MDA-MB-231, 48 h
[2] = target: T1, von Hippel-Lindau disease tumor suppressor/Serine/threonine-protein kinase PAK 1 (Homo sapiens, UniProt Q13153+P40337); assay: PROTAC activity at VHL/PAK1 in human MDA-MB-231 cells assessed as induction of protein degradation at 2.5 uM incubated for 48 hrs by Western blot analysis relative to control; assay type: cell-based
[3] = target: T1, von Hippel-Lindau disease tumor suppressor/Serine/threonine-protein kinase PAK 1; assay: PROTAC activity at VHL/PAK1 in human MDA-MB-231 cells assessed as fold change in protein expression at 2.5 uM incubated for 48 hrs by Western blot analysis relative to control; assay type: cell-based
[4] = target: T2, Protein cereblon/Serine/threonine-protein kinase PAK 1 (Homo sapiens) (UniProt Q13153+Q96SW2); assay: PROTAC activity at CRBN/PAK1 in human MDA-MB-231 cells assessed as induction of protein degradation at 2.5 uM incubated for 48 hrs by Western blot analysis relative to control; assay type: cell-based
[5] = target: T2, Protein cereblon/Serine/threonine-protein kinase PAK 1 (Homo sapiens); assay: PROTAC activity at CRBN/PAK1 in human MDA-MB-231 cells assessed as fold change in protein expression at 2.5 uM incubated for 48 hrs by Western blot analysis relative to control; assay type: cell-based
[6] = target: T1, von Hippel-Lindau disease tumor suppressor/Serine/threonine-protein kinase PAK 1; assay: PROTAC activity at VHL/PAK1 in human MDA-MB-231 cells assessed as induction of protein degradation at 0.1 uM incubated for 48 hrs by Western blot analysis relative to control; assay type: cell-based
[7] = target: T2, Protein cereblon/Serine/threonine-protein kinase PAK 1 (Homo sapiens); assay: PROTAC activity at CRBN/PAK1 in human MDA-MB-231 cells assessed as induction of protein degradation at 0.1 uM incubated for 48 hrs by Western blot analysis relative to control; assay type: cell-based

T2 sequence (Q13153 whole entry, looked up): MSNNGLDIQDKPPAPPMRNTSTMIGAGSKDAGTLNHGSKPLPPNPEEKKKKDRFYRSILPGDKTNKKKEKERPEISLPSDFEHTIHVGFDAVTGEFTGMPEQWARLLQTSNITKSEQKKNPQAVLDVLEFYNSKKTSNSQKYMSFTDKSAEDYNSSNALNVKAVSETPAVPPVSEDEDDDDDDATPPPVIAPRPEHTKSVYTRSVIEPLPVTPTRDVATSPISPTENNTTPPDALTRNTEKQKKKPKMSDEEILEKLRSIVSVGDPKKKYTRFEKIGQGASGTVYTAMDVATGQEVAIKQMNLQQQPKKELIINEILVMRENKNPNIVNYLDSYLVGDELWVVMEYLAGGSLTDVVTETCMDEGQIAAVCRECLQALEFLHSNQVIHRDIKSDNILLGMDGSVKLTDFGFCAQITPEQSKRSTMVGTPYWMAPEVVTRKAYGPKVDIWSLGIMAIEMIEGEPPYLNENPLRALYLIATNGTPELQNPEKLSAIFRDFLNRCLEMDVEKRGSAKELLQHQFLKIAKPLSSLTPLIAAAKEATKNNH
T2 sequence (Q96SW2 whole entry, looked up): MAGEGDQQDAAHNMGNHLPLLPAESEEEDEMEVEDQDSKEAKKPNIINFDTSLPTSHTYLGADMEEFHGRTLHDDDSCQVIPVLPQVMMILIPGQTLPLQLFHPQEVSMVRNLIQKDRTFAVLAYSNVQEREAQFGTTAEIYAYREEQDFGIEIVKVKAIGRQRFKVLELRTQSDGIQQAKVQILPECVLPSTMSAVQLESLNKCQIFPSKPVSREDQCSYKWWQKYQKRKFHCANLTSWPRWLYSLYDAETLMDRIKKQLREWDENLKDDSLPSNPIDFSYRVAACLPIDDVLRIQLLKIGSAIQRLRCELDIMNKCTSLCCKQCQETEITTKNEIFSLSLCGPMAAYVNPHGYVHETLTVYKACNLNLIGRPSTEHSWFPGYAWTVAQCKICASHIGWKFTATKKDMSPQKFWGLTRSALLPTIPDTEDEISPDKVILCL
T1 sequence (Q13153 2-545 limits assumed): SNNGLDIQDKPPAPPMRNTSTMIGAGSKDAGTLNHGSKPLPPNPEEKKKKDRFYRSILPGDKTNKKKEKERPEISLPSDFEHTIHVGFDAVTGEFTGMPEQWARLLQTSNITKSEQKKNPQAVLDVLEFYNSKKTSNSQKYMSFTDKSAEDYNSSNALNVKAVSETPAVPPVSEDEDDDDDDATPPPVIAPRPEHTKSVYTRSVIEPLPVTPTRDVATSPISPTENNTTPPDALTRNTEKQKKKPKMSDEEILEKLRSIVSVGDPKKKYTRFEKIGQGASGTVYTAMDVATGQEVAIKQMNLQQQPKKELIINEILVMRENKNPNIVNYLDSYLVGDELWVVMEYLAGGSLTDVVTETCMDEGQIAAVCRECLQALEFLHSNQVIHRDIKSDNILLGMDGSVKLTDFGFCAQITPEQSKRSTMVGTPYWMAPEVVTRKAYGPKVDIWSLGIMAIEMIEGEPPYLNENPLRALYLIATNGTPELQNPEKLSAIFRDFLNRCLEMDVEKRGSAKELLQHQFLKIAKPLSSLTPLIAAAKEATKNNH
T1 sequence (P40337 whole entry partner): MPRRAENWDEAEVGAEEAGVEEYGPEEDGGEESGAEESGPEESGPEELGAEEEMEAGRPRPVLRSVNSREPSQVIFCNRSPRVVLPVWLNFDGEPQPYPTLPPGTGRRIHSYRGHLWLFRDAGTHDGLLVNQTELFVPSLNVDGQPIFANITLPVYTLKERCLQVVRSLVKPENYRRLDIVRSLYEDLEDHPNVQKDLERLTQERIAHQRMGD

Row | SMILES | IC50 [1] [µM] | Activity [2] [%] | fold change (FC) [3] | Activity [4] [%] | fold change (FC) [5] | Activity [6] [%] | Activity [7] [%]
1 | CNc1ncc2cc(-c3ccc(Cl)cc3Cl)c(=O)n(CCCCn3cc(CNc4cccc5c4C(=O)N(C4CCC(=O)NC4=O)C5=O)nn3)c2n1 (stereo not given) | > 50 |  |  | 2.8 | 0.583 |  | 
2 | CNc1ncc2cc(-c3ccc(Cl)cc3Cl)c(=O)n(CCOCCOCCOCCn3cc(CNc4cccc5c4C(=O)N(C4CCC(=O)NC4=O)C5=O)nn3)c2n1 (stereo not given) | > 50 |  |  | 1.2 | 0.988 |  | 
3 | CNc1ncc2cc(-c3ccc(Cl)cc3Cl)c(=O)n(CCCCCn3cc(CNc4cccc5c4C(=O)N(C4CCC(=O)NC4=O)C5=O)nn3)c2n1 (stereo not given) | > 50 |  |  | -5.4 | 0.97 |  | 
4 | CNc1ncc2cc(-c3ccc(Cl)cc3Cl)c(=O)n(CCOCCOCCn3cc(CNc4cccc5c4C(=O)N(C4CCC(=O)NC4=O)C5=O)nn3)c2n1 (stereo not given) | > 50 |  |  | 4.1 | 0.959 |  | 
5 | O=C1CCC(N2C(=O)c3cccc(NCc4cn(CCOCCOCCOCCn5c(=O)c(-c6ccc(Cl)cc6Cl)cc6cnc(NC7CC7)nc65)nn4)c3C2=O)C(=O)N1 (stereo not given) | > 50 |  |  | -6.9 | 1.07 |  | 
6 | O=C1CCC(N2C(=O)c3cccc(NCc4cn(CCOCCOCCn5c(=O)c(-c6ccc(Cl)cc6Cl)cc6cnc(NC7CC7)nc65)nn4)c3C2=O)C(=O)N1 (stereo not given) | > 50 |  |  | 23.9 | 1.05 |  | 
7 | CNc1ncc2cc(-c3ccc(Cl)cc3Cl)c(=O)n(CCCCCCn3cc(CNc4cccc5c4C(=O)N(C4CCC(=O)NC4=O)C5=O)nn3)c2n1 (stereo not given) | 25.8 |  |  | 41.7 | 0.653 |  | 15.3
8 | CNc1ncc2cc(-c3ccc(Cl)cc3Cl)c(=O)n(CCCCCCCn3cc(CNc4cccc5c4C(=O)N(C4CCC(=O)NC4=O)C5=O)nn3)c2n1 (stereo not given) | 18.9 |  |  | 45.5 | 0.545 |  | 23.1
9 | O=C1CCC(N2C(=O)c3cccc(NCc4cn(CCOCCn5c(=O)c(-c6ccc(Cl)cc6Cl)cc6cnc(NC7CC7)nc65)nn4)c3C2=O)C(=O)N1 (stereo not given) | > 50 |  |  | 1 | 0.99 |  | 
10 | O=C1CCC(N2C(=O)c3cccc(NCc4cn(CCCCn5c(=O)c(-c6ccc(Cl)cc6Cl)cc6cnc(NC7CC7)nc65)nn4)c3C2=O)C(=O)N1 (stereo not given) | 34.6 |  |  | 23.9 | 0.761 |  | 
11 | O=C1CCC(N2C(=O)c3cccc(NCc4cn(CCCCCn5c(=O)c(-c6ccc(Cl)cc6Cl)cc6cnc(NC7CC7)nc65)nn4)c3C2=O)C(=O)N1 (stereo not given) | > 50 |  |  | 19.2 | 0.809 |  | 
12 | O=C1CCC(N2C(=O)c3cccc(NCc4cn(CCCCCCCn5c(=O)c(-c6ccc(Cl)cc6Cl)cc6cnc(NC7CC7)nc65)nn4)c3C2=O)C(=O)N1 (stereo not given) | 7.35 |  |  | 56.1 | 0.44 |  | 18.3
13 | O=C1CCC(N2C(=O)c3cccc(NCc4cn(CCCCCCn5c(=O)c(-c6ccc(Cl)cc6Cl)cc6cnc(NC7CC7)nc65)nn4)c3C2=O)C(=O)N1 (stereo not given) | 32.1 |  |  | 34.7 | 0.761 |  | 
14 | CNc1ncc2cc(-c3ccc(Cl)cc3Cl)c(=O)n(CCOCCn3cc(CNc4cccc5c4C(=O)N(C4CCC(=O)NC4=O)C5=O)nn3)c2n1 (stereo not given) | > 50 |  |  | 8.2 | 0.918 |  | 

Results, then the compound that gave them:

Row | IC50 [1] [µM] | Activity [2] [%] | fold change (FC) [3] | Activity [4] [%] | fold change (FC) [5] | Activity [6] [%] | Activity [7] [%] | SMILES
15 | > 50 | 29.1 | 0.709 |  |  |  |  | Cc1ncsc1-c1ccc([C@H](C)NC(=O)[C@@H]2C[C@@H](O)CN2C(=O)[C@@H](NC(=O)CCCc2cn(CCCCCCn3c(=O)c(-c4ccc(Cl)cc4Cl)cc4cnc(NC5CC5)nc43)nn2)C(C)(C)C)cc1
16 | 33.2 | 32.1 | 0.679 |  |  |  |  | Cc1ncsc1-c1ccc([C@H](C)NC(=O)[C@@H]2C[C@@H](O)CN2C(=O)[C@@H](NC(=O)CCCc2cn(CCCCn3c(=O)c(-c4ccc(Cl)cc4Cl)cc4cnc(NC5CC5)nc43)nn2)C(C)(C)C)cc1
17 | 16.9 | 44.3 | 0.557 |  |  | 15.7 |  | Cc1ncsc1-c1ccc([C@H](C)NC(=O)[C@@H]2C[C@@H](O)CN2C(=O)[C@@H](NC(=O)CCc2cn(CCOCCn3c(=O)c(-c4ccc(Cl)cc4Cl)cc4cnc(NC5CC5)nc43)nn2)C(C)(C)C)cc1
18 | > 50 | 3.8 | 0.962 |  |  |  |  | Cc1ncsc1-c1ccc([C@H](C)NC(=O)[C@@H]2C[C@@H](O)CN2C(=O)[C@@H](NC(=O)CCc2cn(CCOCCOCCn3c(=O)c(-c4ccc(Cl)cc4Cl)cc4cnc(NC5CC5)nc43)nn2)C(C)(C)C)cc1
19 | > 50 | 18.2 | 0.812 |  |  |  |  | Cc1ncsc1-c1ccc([C@H](C)NC(=O)[C@@H]2C[C@@H](O)CN2C(=O)[C@@H](NC(=O)CCCCc2cn(CCCCCCCn3c(=O)c(-c4ccc(Cl)cc4Cl)cc4cnc(NC5CC5)nc43)nn2)C(C)(C)C)cc1
20 | > 50 | 2.7 | 0.973 |  |  |  |  | Cc1ncsc1-c1ccc([C@H](C)NC(=O)[C@@H]2C[C@@H](O)CN2C(=O)[C@@H](NC(=O)CCCc2cn(CCOCCOCCn3c(=O)c(-c4ccc(Cl)cc4Cl)cc4cnc(NC5CC5)nc43)nn2)C(C)(C)C)cc1
21 | 35.8 | 30.1 | 0.699 |  |  |  |  | Cc1ncsc1-c1ccc([C@H](C)NC(=O)[C@@H]2C[C@@H](O)CN2C(=O)[C@@H](NC(=O)CCCCc2cn(CCOCCn3c(=O)c(-c4ccc(Cl)cc4Cl)cc4cnc(NC5CC5)nc43)nn2)C(C)(C)C)cc1
22 | > 50 | 14.4 | 0.856 |  |  |  |  | Cc1ncsc1-c1ccc([C@H](C)NC(=O)[C@@H]2C[C@@H](O)CN2C(=O)[C@@H](NC(=O)CCCCc2cn(CCCCn3c(=O)c(-c4ccc(Cl)cc4Cl)cc4cnc(NC5CC5)nc43)nn2)C(C)(C)C)cc1
23 | > 50 | 5.1 | 0.949 |  |  |  |  | Cc1ncsc1-c1ccc([C@H](C)NC(=O)[C@@H]2C[C@@H](O)CN2C(=O)[C@@H](NC(=O)CCCc2cn(CCOCCOCCOCCn3c(=O)c(-c4ccc(Cl)cc4Cl)cc4cnc(NC5CC5)nc43)nn2)C(C)(C)C)cc1
24 | > 50 | 17.4 | 0.826 |  |  |  |  | Cc1ncsc1-c1ccc([C@H](C)NC(=O)[C@@H]2C[C@@H](O)CN2C(=O)[C@@H](NC(=O)CCc2cn(CCCCCn3c(=O)c(-c4ccc(Cl)cc4Cl)cc4cnc(NC5CC5)nc43)nn2)C(C)(C)C)cc1
25 | 3.78 | 67.1 | 0.329 |  |  | 39.1 |  | Cc1ncsc1-c1ccc([C@H](C)NC(=O)[C@@H]2C[C@@H](O)CN2C(=O)[C@@H](NC(=O)CCc2cn(CCCCCCn3c(=O)c(-c4ccc(Cl)cc4Cl)cc4cnc(NC5CC5)nc43)nn2)C(C)(C)C)cc1
26 | 2.01 | 68.2 | 0.318 |  |  | 41 |  | Cc1ncsc1-c1ccc([C@H](C)NC(=O)[C@@H]2C[C@@H](O)CN2C(=O)[C@@H](NC(=O)CCCc2cn(CCCCCCCn3c(=O)c(-c4ccc(Cl)cc4Cl)cc4cnc(NC5CC5)nc43)nn2)C(C)(C)C)cc1
27 | > 50 | -4.8 | 1.05 |  |  |  |  | Cc1ncsc1-c1ccc([C@H](C)NC(=O)[C@@H]2C[C@@H](O)CN2C(=O)[C@@H](NC(=O)CCCCc2cn(CCOCCOCCn3c(=O)c(-c4ccc(Cl)cc4Cl)cc4cnc(NC5CC5)nc43)nn2)C(C)(C)C)cc1
28 | 5.47 | 57 | 0.43 |  |  | 27.4 |  | Cc1ncsc1-c1ccc([C@H](C)NC(=O)[C@@H]2C[C@@H](O)CN2C(=O)[C@@H](NC(=O)CCCCc2cn(CCCCCn3c(=O)c(-c4ccc(Cl)cc4Cl)cc4cnc(NC5CC5)nc43)nn2)C(C)(C)C)cc1
29 | 16.3 | 45.5 | 0.545 |  |  | 11.9 |  | Cc1ncsc1-c1ccc([C@H](C)NC(=O)[C@@H]2C[C@@H](O)CN2C(=O)[C@@H](NC(=O)CCCc2cn(CCCCCn3c(=O)c(-c4ccc(Cl)cc4Cl)cc4cnc(NC5CC5)nc43)nn2)C(C)(C)C)cc1
30 | > 50 | 7.1 | 0.929 |  |  |  |  | Cc1ncsc1-c1ccc([C@H](C)NC(=O)[C@@H]2C[C@@H](O)CN2C(=O)[C@@H](NC(=O)CCc2cn(CCOCCOCCOCCn3c(=O)c(-c4ccc(Cl)cc4Cl)cc4cnc(NC5CC5)nc43)nn2)C(C)(C)C)cc1
31 | > 50 | 12 | 0.88 |  |  |  |  | Cc1ncsc1-c1ccc([C@H](C)NC(=O)[C@@H]2C[C@@H](O)CN2C(=O)[C@@H](NC(=O)CCCCc2cn(CCOCCOCCOCCn3c(=O)c(-c4ccc(Cl)cc4Cl)cc4cnc(NC5CC5)nc43)nn2)C(C)(C)C)cc1
32 | > 50 | 24.6 | 0.754 |  |  |  |  | Cc1ncsc1-c1ccc([C@H](C)NC(=O)[C@@H]2C[C@@H](O)CN2C(=O)[C@@H](NC(=O)CCCCc2cn(CCCCCCn3c(=O)c(-c4ccc(Cl)cc4Cl)cc4cnc(NC5CC5)nc43)nn2)C(C)(C)C)cc1
33 | 27.1 | 31.7 | 0.683 |  |  |  |  | Cc1ncsc1-c1ccc([C@H](C)NC(=O)[C@@H]2C[C@@H](O)CN2C(=O)[C@@H](NC(=O)CCCc2cn(CCOCCn3c(=O)c(-c4ccc(Cl)cc4Cl)cc4cnc(NC5CC5)nc43)nn2)C(C)(C)C)cc1
34 | > 50 | 10.4 | 0.896 |  |  |  |  | Cc1ncsc1-c1ccc([C@H](C)NC(=O)[C@@H]2C[C@@H](O)CN2C(=O)[C@@H](NC(=O)CCc2cn(CCCCn3c(=O)c(-c4ccc(Cl)cc4Cl)cc4cnc(NC5CC5)nc43)nn2)C(C)(C)C)cc1
